Test results from ChEMBL document CHEMBL4138146, “A Schmidt rearrangement-mediated synthesis of novel tetrahydro-benzo[1,4]diazepin-5-ones as potential anticancer and antiprotozoal agents” (Eur J Med Chem, 2017).

tested on: UO-31; experiment: Growth inhibition of human UO31 cells assessed as cell growth at 10 uM incubated for 48 hrs by sulforhodamine B assay relative to control; assay type: functional; settings: UO-31, 48 h, read-out: Activity

Row | SMILES | growth at 10 µM [%]
1 | CCCCOc1nc2ccc(OC)cc2cc1C1CNC(=O)c2ccccc2N1 (stereo not drawn) | 78.1

tested on: U-251; experiment: Growth inhibition of human U251 cells assessed as cell growth at 10 uM incubated for 48 hrs by sulforhodamine B assay relative to control; assay type: functional; settings: U-251, 48 h, read-out: Activity

Row | SMILES | growth at 10 µM [%]
2 | CCCCOc1nc2ccc(OC)cc2cc1C1CNC(=O)c2ccccc2N1 (stereo not drawn) | 106

tested on: CCRF-CEM; experiment: Growth inhibition of human CCRF-CEM cells assessed as cell growth at 10 uM incubated for 48 hrs by sulforhodamine B assay relative to control; assay type: functional; settings: read-out: Activity

Row | SMILES | growth at 10 µM [%]
3 | CCCCOc1nc2ccc(OC)cc2cc1C1CNC(=O)c2ccccc2N1 (stereo not drawn) | 106

tested on: SF-539; experiment: Growth inhibition of human SF539 cells assessed as cell growth at 10 uM incubated for 48 hrs by sulforhodamine B assay relative to control; assay type: functional; settings: SF-539, 48 h, read-out: Activity

Row | SMILES | growth at 10 µM [%]
4 | CCCCOc1nc2ccc(OC)cc2cc1C1CNC(=O)c2ccccc2N1 (stereo not drawn) | 95.3

tested on: SN12C; experiment: Growth inhibition of human SN12C cells assessed as cell growth at 10 uM incubated for 48 hrs by sulforhodamine B assay relative to control; assay type: functional; settings: read-out: Activity

Row | SMILES | growth at 10 µM [%]
5 | CCCCOc1nc2ccc(OC)cc2cc1C1CNC(=O)c2ccccc2N1 (stereo not drawn) | 91.5

tested on: T47D; experiment: Growth inhibition of human T47D cells assessed as cell growth at 10 uM incubated for 48 hrs by sulforhodamine B assay relative to control; assay type: functional; settings: read-out: Activity

Row | SMILES | growth at 10 µM [%]
6 | CCCCOc1nc2ccc(OC)cc2cc1C1CNC(=O)c2ccccc2N1 (stereo not drawn) | 94.1

tested on: A549; experiment: Growth inhibition of human A549/ATCC cells assessed as cell growth at 10 uM incubated for 48 hrs by sulforhodamine B assay relative to control; assay type: functional; settings: A549, 48 h, read-out: Activity

Row | SMILES | growth at 10 µM [%]
7 | CCCCOc1nc2ccc(OC)cc2cc1C1CNC(=O)c2ccccc2N1 (stereo not drawn) | 86.4

tested on: Malme-3M; experiment: Growth inhibition of human MALME-3M cells assessed as cell growth at 10 uM incubated for 48 hrs by sulforhodamine B assay relative to control; assay type: functional; settings: read-out: Activity

Row | SMILES | growth at 10 µM [%]
8 | CCCCOc1nc2ccc(OC)cc2cc1C1CNC(=O)c2ccccc2N1 (stereo not drawn) | 123

tested on: OVCAR-3; experiment: Growth inhibition of human OVCAR3 cells assessed as cell growth at 10 uM incubated for 48 hrs by sulforhodamine B assay relative to control; assay type: functional; settings: OVCAR-3, 48 h, read-out: Activity

Row | SMILES | growth at 10 µM [%]
9 | CCCCOc1nc2ccc(OC)cc2cc1C1CNC(=O)c2ccccc2N1 (stereo not drawn) | 101

tested on: A498; experiment: Growth inhibition of human A498 cells assessed as cell growth at 10 uM incubated for 48 hrs by sulforhodamine B assay relative to control; assay type: functional; settings: A498, 48 h, read-out: Activity

Row | SMILES | growth at 10 µM [%]
10 | CCCCOc1nc2ccc(OC)cc2cc1C1CNC(=O)c2ccccc2N1 (stereo not drawn) | 88.5

tested on: HCT-116; experiment: Growth inhibition of human HCT116 cells assessed as cell growth at 10 uM incubated for 48 hrs by sulforhodamine B assay relative to control; assay type: functional; settings: HCT-116, 48 h, read-out: Activity

Row | SMILES | growth at 10 µM [%]
11 | CCCCOc1nc2ccc(OC)cc2cc1C1CNC(=O)c2ccccc2N1 (stereo not drawn) | 85.3

tested on: SW-620; experiment: Growth inhibition of human SW620 cells assessed as cell growth at 10 uM incubated for 48 hrs by sulforhodamine B assay relative to control; assay type: functional; settings: SW-620, 48 h, read-out: Activity

Row | SMILES | growth at 10 µM [%]
12 | CCCCOc1nc2ccc(OC)cc2cc1C1CNC(=O)c2ccccc2N1 (stereo not drawn) | 97.6

tested on: NCI-H522; experiment: Growth inhibition of human NCI-H522 cells assessed as cell growth at 10 uM incubated for 48 hrs by sulforhodamine B assay relative to control; assay type: functional; settings: NCI-H522, 48 h, read-out: Activity

Row | SMILES | growth at 10 µM [%]
13 | CCCCOc1nc2ccc(OC)cc2cc1C1CNC(=O)c2ccccc2N1 (stereo not drawn) | 77.4

tested on: NCI-H226; experiment: Growth inhibition of human NCI-H226 cells assessed as cell growth at 10 uM incubated for 48 hrs by sulforhodamine B assay relative to control; assay type: functional; settings: NCI-H226, 48 h, read-out: Activity

Row | SMILES | growth at 10 µM [%]
14 | CCCCOc1nc2ccc(OC)cc2cc1C1CNC(=O)c2ccccc2N1 (stereo not drawn) | 87.1

tested on: TK-10; experiment: Growth inhibition of human TK10 cells assessed as cell growth at 10 uM incubated for 48 hrs by sulforhodamine B assay relative to control; assay type: functional; settings: TK-10, 48 h, read-out: Activity

Row | SMILES | growth at 10 µM [%]
15 | CCCCOc1nc2ccc(OC)cc2cc1C1CNC(=O)c2ccccc2N1 (stereo not drawn) | 97

tested on: NCI-H322M; experiment: Growth inhibition of human NCI-H322M cells assessed as cell growth at 10 uM incubated for 48 hrs by sulforhodamine B assay relative to control; assay type: functional; settings: read-out: Activity

Row | SMILES | growth at 10 µM [%]
16 | CCCCOc1nc2ccc(OC)cc2cc1C1CNC(=O)c2ccccc2N1 (stereo not drawn) | 110

tested on: ACHN; experiment: Growth inhibition of human ACHN cells assessed as cell growth at 10 uM incubated for 48 hrs by sulforhodamine B assay relative to control; assay type: functional; settings: read-out: Activity

Row | SMILES | growth at 10 µM [%]
17 | CCCCOc1nc2ccc(OC)cc2cc1C1CNC(=O)c2ccccc2N1 (stereo not drawn) | 97.3

tested on: RXF 393; experiment: Growth inhibition of human RXF393 cells assessed as cell growth at 10 uM incubated for 48 hrs by sulforhodamine B assay relative to control; assay type: functional; settings: RXF 393, 48 h, read-out: Activity

Row | SMILES | growth at 10 µM [%]
18 | CCCCOc1nc2ccc(OC)cc2cc1C1CNC(=O)c2ccccc2N1 (stereo not drawn) | 109

tested on: KM12; experiment: Growth inhibition of human KM12 cells assessed as cell growth at 10 uM incubated for 48 hrs by sulforhodamine B assay relative to control; assay type: functional; settings: KM12, 48 h, read-out: Activity

Row | SMILES | growth at 10 µM [%]
19 | CCCCOc1nc2ccc(OC)cc2cc1C1CNC(=O)c2ccccc2N1 (stereo not drawn) | 96.6

tested on: OVCAR-5; experiment: Growth inhibition of human OVCAR5 cells assessed as cell growth at 10 uM incubated for 48 hrs by sulforhodamine B assay relative to control; assay type: functional; settings: OVCAR-5, 48 h, read-out: Activity

Row | SMILES | growth at 10 µM [%]
20 | CCCCOc1nc2ccc(OC)cc2cc1C1CNC(=O)c2ccccc2N1 (stereo not drawn) | 107

tested on: NCI/ADR-RES; experiment: Growth inhibition of human NCI/ADR-RES cells assessed as cell growth at 10 uM incubated for 48 hrs by sulforhodamine B assay relative to control; assay type: functional; settings: read-out: Activity

Row | SMILES | growth at 10 µM [%]
21 | CCCCOc1nc2ccc(OC)cc2cc1C1CNC(=O)c2ccccc2N1 (stereo not drawn) | 109

tested on: COLO 205; experiment: Growth inhibition of human COLO205 cells assessed as cell growth at 10 uM incubated for 48 hrs by sulforhodamine B assay relative to control; assay type: functional; settings: COLO 205, 48 h, read-out: Activity

Row | SMILES | growth at 10 µM [%]
22 | CCCCOc1nc2ccc(OC)cc2cc1C1CNC(=O)c2ccccc2N1 (stereo not drawn) | 106

tested on: SK-MEL-28; experiment: Growth inhibition of human SK-MEL-28 cells assessed as cell growth at 10 uM incubated for 48 hrs by sulforhodamine B assay relative to control; assay type: functional; settings: SK-MEL-28, 48 h, read-out: Activity

Row | SMILES | growth at 10 µM [%]
23 | CCCCOc1nc2ccc(OC)cc2cc1C1CNC(=O)c2ccccc2N1 (stereo not drawn) | 102

tested on: SK-OV-3; experiment: Growth inhibition of human SKOV3 cells assessed as cell growth at 10 uM incubated for 48 hrs by sulforhodamine B assay relative to control; assay type: functional; settings: SK-OV-3, 48 h, read-out: Activity

Row | SMILES | growth at 10 µM [%]
24 | CCCCOc1nc2ccc(OC)cc2cc1C1CNC(=O)c2ccccc2N1 (stereo not drawn) | 89.3

tested on: UACC-62; experiment: Growth inhibition of human UACC62 cells assessed as cell growth at 10 uM incubated for 48 hrs by sulforhodamine B assay relative to control; assay type: functional; settings: UACC-62, 48 h, read-out: Activity

Row | SMILES | growth at 10 µM [%]
25 | CCCCOc1nc2ccc(OC)cc2cc1C1CNC(=O)c2ccccc2N1 (stereo not drawn) | 76.2

tested on: SNB-19; experiment: Growth inhibition of human SNB19 cells assessed as cell growth at 10 uM incubated for 48 hrs by sulforhodamine B assay relative to control; assay type: functional; settings: SNB-19, 48 h, read-out: Activity

Row | SMILES | growth at 10 µM [%]
26 | CCCCOc1nc2ccc(OC)cc2cc1C1CNC(=O)c2ccccc2N1 (stereo not drawn) | 105

tested on: OVCAR-8; experiment: Growth inhibition of human OVCAR8 cells assessed as cell growth at 10 uM incubated for 48 hrs by sulforhodamine B assay relative to control; assay type: functional; settings: OVCAR-8, 48 h, read-out: Activity

Row | SMILES | growth at 10 µM [%]
27 | CCCCOc1nc2ccc(OC)cc2cc1C1CNC(=O)c2ccccc2N1 (stereo not drawn) | 102

tested on: HOP-92; experiment: Growth inhibition of human HOP92 cells assessed as cell growth at 10 uM incubated for 48 hrs by sulforhodamine B assay relative to control; assay type: functional; settings: HOP-92, 48 h, read-out: Activity

Row | SMILES | growth at 10 µM [%]
28 | CCCCOc1nc2ccc(OC)cc2cc1C1CNC(=O)c2ccccc2N1 (stereo not drawn) | 90.4

tested on: HT-29; experiment: Growth inhibition of human HT-29 cells assessed as cell growth at 10 uM incubated for 48 hrs by sulforhodamine B assay relative to control; assay type: functional; settings: HT-29, 48 h, read-out: Activity

Row | SMILES | growth at 10 µM [%]
29 | CCCCOc1nc2ccc(OC)cc2cc1C1CNC(=O)c2ccccc2N1 (stereo not drawn) | 100

tested on: HOP-62; experiment: Growth inhibition of human HOP62 cells assessed as cell growth at 10 uM incubated for 48 hrs by sulforhodamine B assay relative to control; assay type: functional; settings: HOP-62, 48 h, read-out: Activity

Row | SMILES | growth at 10 µM [%]
30 | CCCCOc1nc2ccc(OC)cc2cc1C1CNC(=O)c2ccccc2N1 (stereo not drawn) | 96

tested on: MDA-MB-468; experiment: Growth inhibition of human MDA-MB-468 cells assessed as cell growth at 10 uM incubated for 48 hrs by sulforhodamine B assay relative to control; assay type: functional; settings: MDA-MB-468, 48 h, read-out: Activity

Row | SMILES | growth at 10 µM [%]
31 | CCCCOc1nc2ccc(OC)cc2cc1C1CNC(=O)c2ccccc2N1 (stereo not drawn) | 96.8

tested on: OVCAR-4; experiment: Growth inhibition of human OVCAR4 cells assessed as cell growth at 10 uM incubated for 48 hrs by sulforhodamine B assay relative to control; assay type: functional; settings: OVCAR-4, 48 h, read-out: Activity

Row | SMILES | growth at 10 µM [%]
32 | CCCCOc1nc2ccc(OC)cc2cc1C1CNC(=O)c2ccccc2N1 (stereo not drawn) | 99.3

tested on: NCI-H23; experiment: Growth inhibition of human NCI-H23 cells assessed as cell growth at 10 uM incubated for 48 hrs by sulforhodamine B assay relative to control; assay type: functional; settings: NCI-H23, 48 h, read-out: Activity

Row | SMILES | growth at 10 µM [%]
33 | CCCCOc1nc2ccc(OC)cc2cc1C1CNC(=O)c2ccccc2N1 (stereo not drawn) | 99.2
